Laboratory results: patent US11407748B2, “Substituted pyrido[1,2-a]pyrimidines and pyrazino[1,2-a]pyrimidines for enhancing AMPA receptor function” (Takeda Pharmaceutical Company Limited, priority 2017, dated 2022)

Target: T1, hGluR1 flip (Homo sapiens, UniProt P42261)
T1 construct: expressed in transfected cells; host or cells: CHO-K1
Experiment: AMPA receptor function-enhancing activity using calcium influx as index
Type: cell-based
Details: test compound 30 μM with 3 mM glutamic acid; CHO-K1/GluR1 flip/stargazin-expressing cells; 100% = 3 mM glutamic acid + 300 μM cyclothiazide, 0% = 3 mM glutamic acid alone
Text: Experimental Example 1 Measurement Method of AMPA Receptor Function-Enhancing Activity of Compound Using Calcium Influx as Index
(1) Construction of Expression Gene
Human GluR^1 flip cDNA was amplified by PCR method using forward primer […] (SEQ ID NO: 1) and reverse primer […] (SEQ ID NO: 2) artificially synthesized using human brain-derived cDNA (BD Bioscience) as a template. The amplified product was digested with restriction enzymes EcoRI, NotI (TAKARA SHUZO CO. LTD.) and incorporated into the same site of pcDNA3.1 (+) (Invitrogen) to construct pcDNA3.1(+)/human GluR1 flip gene. Human stargazin cDNA was amplified by PCR method using forward primer […] (SEQ ID NO: 3) and reverse primer […] (SEQ ID NO: 4) artificially synthesized using human hippocampus cDNA as a template. The amplified product was digested with restriction enzymes XhoI, BamHI (TAKARA SHUZO CO. LTD.) and incorporated into the same site of pcDNA3.1(−) (Invitrogen) to construct pcDNA3.1 Zeo(−)/human stargazing gene.
(2) Construction of GluR1 Flip/Stargazin Expressing Cell
CHO-K1 cells passaged in a culture medium (Ham's F12 medium (Invitrogen) added with 10% inactivated fetal bovine serum (Morgate) and penicillin, streptomycin (Invitrogen)) were detached using 0.05% trypsin and 0.53 mM EDTA (Invitrogen) diluted with D-PBS(−). The detached cells were suspended in a culture medium, and recovered by centrifugation at 1,000 rpm. The recovered cells were re-suspended in D-PBS(−) and added into 0.4 cm electroporation cuvette (BioRad). pcDNA3.1(+)/human GluR1 flip gene (5 μg) and pcDNA3.1 Zeo(−)/human stargazin gene (15 μg) were added, and introduced into CHO-K1 cells under the conditions of 950 μFd, […] and using Gene Pulser II (BioRad). The introduced cells were cultured overnight in a culture medium. The next day, using a selection medium (culture medium added with zeocin (Invitrogen) at 250 μg/mL), the cells were plated in a 96 well plate at 250 cells/well. The clones showing drug resistance were selected, and GluR1 flip/stargazin expression clones were selected by an assay method shown below using calcium influx as an index.
(3) Measurement Method of AMPA Receptor Function-Enhancing Activity of Compound, Using Calcium Influx as an Index
CHO-K1/GluR1 flip/stargazin-expressing cells were plated on a 384 well black bottom transparent plate, and cultured for 2 days in a CO2 incubator (SANYO ELECTRIC Co. Ltd.) at 37° C. The medium of the cell plate was removed. A calcium indicator (Calcium5 Assay Kit, Molecular Devices) was diluted with an assay buffer (HESS (Thermo Fisher Scientific), 0.1% BSA (Merck Millipoer) and 10 mM HEPES (Thermo Fisher Scientific)), and 1.25 mM probenecid (Dojindo Laboratories) was added thereto. The mixture prepared above was added at 30 μL/well (100 μL/well in case of 96 wells) to the well, and the well was left standing in 37° C., CO2 incubator for 1 hr. The cell plate was set in CellLux (PerkinElmer), a mixture (15 μL) (50 μL/well in case of 96 wells) of 9 mM glutamic acid (final concentration 3 mM) diluted with an assay buffer and a test compound (test compound concentration 30 μM) was added thereto, and variation in the amount of fluorescence was measured for 3 min. The variation of fluorescence level of a well added with final concentration 3 mM of glutamic acid and 300 μM cyclothiazide (TOCRIS) was defined as 100%, the variation of fluorescence level of a well added with final concentration 3 mM of glutamic acid alone was defined as 0%, and the activity of the compound was calculated by the following formula. activity (%)=(X−C)/(T−C)×100 • T: variation of fluorescence level of well added with final concentration 3 mM of glutamic acid and 300 μM cyclothiazide • C: variation of fluorescence level of well added with final concentration 3 mM of glutamic acid alone • X: variation of fluorescence level of well added with test compound

T1 sequence (P42261 19-906 isoform P42261-2 limits assumed): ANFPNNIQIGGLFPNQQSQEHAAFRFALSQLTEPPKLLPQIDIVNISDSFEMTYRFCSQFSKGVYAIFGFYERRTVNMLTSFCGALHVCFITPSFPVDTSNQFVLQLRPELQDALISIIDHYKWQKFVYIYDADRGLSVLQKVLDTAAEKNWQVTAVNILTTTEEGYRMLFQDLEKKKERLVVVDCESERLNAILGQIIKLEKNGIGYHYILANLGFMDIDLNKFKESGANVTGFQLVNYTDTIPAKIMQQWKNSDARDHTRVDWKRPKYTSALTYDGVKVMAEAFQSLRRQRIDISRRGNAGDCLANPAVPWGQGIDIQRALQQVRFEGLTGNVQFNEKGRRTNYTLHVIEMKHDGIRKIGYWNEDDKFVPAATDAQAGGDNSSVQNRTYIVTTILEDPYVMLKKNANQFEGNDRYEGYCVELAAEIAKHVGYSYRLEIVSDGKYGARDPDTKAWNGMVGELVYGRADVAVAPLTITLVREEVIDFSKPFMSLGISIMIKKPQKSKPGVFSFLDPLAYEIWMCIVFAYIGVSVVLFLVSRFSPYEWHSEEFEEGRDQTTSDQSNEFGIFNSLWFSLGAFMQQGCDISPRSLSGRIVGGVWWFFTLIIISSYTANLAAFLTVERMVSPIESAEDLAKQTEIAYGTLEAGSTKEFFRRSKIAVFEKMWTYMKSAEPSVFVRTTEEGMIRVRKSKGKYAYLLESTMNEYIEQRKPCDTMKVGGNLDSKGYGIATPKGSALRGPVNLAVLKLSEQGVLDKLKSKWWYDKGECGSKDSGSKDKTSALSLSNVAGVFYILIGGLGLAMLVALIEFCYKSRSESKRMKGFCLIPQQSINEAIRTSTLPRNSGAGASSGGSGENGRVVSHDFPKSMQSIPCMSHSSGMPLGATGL
T1 sequence (Q9Y698 whole entry partner): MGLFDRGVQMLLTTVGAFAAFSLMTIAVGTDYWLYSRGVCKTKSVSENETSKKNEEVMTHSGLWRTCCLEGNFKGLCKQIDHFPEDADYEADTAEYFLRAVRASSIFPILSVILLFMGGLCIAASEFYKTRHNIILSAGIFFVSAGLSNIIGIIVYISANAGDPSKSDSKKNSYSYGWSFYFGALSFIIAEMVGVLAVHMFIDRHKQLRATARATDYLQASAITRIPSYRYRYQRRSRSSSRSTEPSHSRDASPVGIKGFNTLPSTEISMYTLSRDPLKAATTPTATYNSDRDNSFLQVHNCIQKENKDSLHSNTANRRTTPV

| Compound | hGluR1 flip/30 μM (%) | activation at 30 µM [%] |
| --- | --- | --- |
| O=C(c1ccc(-c2cccn3c(=O)cc(C(F)(F)F)nc23)cc1)N1CCC(O)(C(F)(F)F)C1 (centres unmarked) [Example 16, 9-(4-((3-hydroxy-3-(trifluoromethyl)pyrrolidin-1-yl)carbonyl)phenyl)-2-(trifluoromethyl)-4H-pyrido[1,2-a]pyrimidin-4-one] | 88.3 |  |
| Cc1c(C(F)(F)F)nc2c(-c3ccc(C(=O)N4CCCOCC4)c(F)c3)cccn2c1=O [Example 76, 9-(3-fluoro-4-(1,4-oxazepan-4-ylcarbonyl)phenyl)-3-methyl-2-(trifluoromethyl)-4H-pyrido[1,2-a]pyrimidin-4-one] |  | 93.3 |
| O=C(NCC(F)(F)F)c1ccc(-c2cccn3c(=O)c(Cl)c(C(F)(F)F)nc23)cc1 [Example 35, 4-(3-chloro-4-oxo-2-(trifluoromethyl)-4H-pyrido[1,2-a]pyrimidin-9-yl)-N-(2,2,2-trifluoroethyl)benzamide] |  | 79.8 |
| Cc1c(C(F)(F)F)nc2c(-c3ccc(C(=O)N[C@H]4CCCOC4)cc3)cccn2c1=O [Example 93, 4-(3-methyl-4-oxo-2-(trifluoromethyl)-4H-pyrido[1,2-a]pyrimidin-9-yl)-N-((3S)-tetrahydro-2H-pyran-3-yl)benzamide] |  | 88.2 |
| O=C(c1ccc(-c2cccn3c(=O)cc(C(F)(F)F)nc23)cc1)N1CCC(O)(C(F)(F)F)CC1 [Example 33, 9-(4-((4-hydroxy-4-(trifluoromethyl)piperidin-1-yl)carbonyl)phenyl)-2-(trifluoromethyl)-4H-pyrido[1,2-a]pyrimidin-4-one] |  | 79.4 |
| C[C@@H]1CN(C(=O)c2ccc(-c3cccn4c(=O)c(Br)c(C(F)(F)F)nc34)cc2)CCO1 [Example 49, 3-bromo-9-(4-(((2R)-2-methylmorpholin-4-yl)carbonyl)phenyl)-2-(trifluoromethyl)-4H-pyrido[1,2-a]pyrimidin-4-one] |  | 71.6 |
| COC1CCN(C(=O)c2ccc(-c3cccn4c(=O)cc(C(F)(F)F)nc34)cc2F)CC1 [Example 89, 9-(3-fluoro-4-((4-methoxypiperidin-1-yl)carbonyl)phenyl)-2-(trifluoromethyl)-4H-pyrido[1,2-a]pyrimidin-4-one] |  | 82.8 |
| Cc1c(C(F)(F)F)nc2c(-c3ccc(C(=O)N4CCC(C#N)C4)cc3)cccn2c1=O (centres unmarked) [Example 121, 1-(4-(3-methyl-4-oxo-2-(trifluoromethyl)-4H-pyrido[1,2-a]pyrimidin-9-yl)benzoyl)pyrrolidine-3-carbonitrile] |  | 84.4 |
| Cc1c(C(F)(F)F)nc2c(-c3ccc(C(=O)N4CCOC(C(F)F)C4)cc3)cccn2c1=O (centres unmarked) [Example 106, 9-(4-((2-(difluoromethyl)morpholin-4-yl)carbonyl)phenyl)-3-methyl-2-(trifluoromethyl)-4H-pyrido[1,2-a]pyrimidin-4-one] | 85.9 |  |
| Cc1c(C(F)(F)F)nc2c(-c3ccc(C(=O)N[C@H]4CCCOC4)c(F)c3)cccn2c1=O [Example 115, 2-fluoro-4-(3-methyl-4-oxo-2-(trifluoromethyl)-4H-pyrido[1,2-a]pyrimidin-9-yl)-N-((3S)-tetrahydro-2H-pyran-3-yl)benzamide] |  | 87.9 |
| CCN(C(=O)c1ccc(-c2cccn3c(=O)c(Br)c(C(F)(F)F)nc23)cc1F)C1CC1 [Example 95, 4-(3-bromo-4-oxo-2 (trifluoromethyl)-4H-pyrido[1,2 a]pyrimidin-9-yl)-N-cyclopropyl-N-ethyl-2-fluorobenzamide] |  | 83.2 |
| O=C(c1ccc(-c2cccn3c(=O)c(Br)c(C(F)(F)F)nc23)cc1)N1CCOC(C(F)F)C1 (centres unmarked) [Example 113, 3-bromo-9-(4-((2-(difluoromethyl)morpholin-4-yl)carbonyl)phenyl)-2-(trifluoromethyl)-4H-pyrido[1,2-a]pyrimidin-4-one] | 78.7 |  |
| O=C(c1ccc(-c2cccn3c(=O)c(Br)c(C(F)(F)F)nc23)cc1)N1CCc2cccnc21 [Example 65, 3-bromo-9-(4-(2,3-dihydro-1H-pyrrolo[2,3-b]pyridin-1-ylcarbonyl)phenyl)-2-(trifluoromethyl)-4H-pyrido[1,2-a]pyrimidin-4-one] |  | 74.6 |
| CN(C(=O)c1ccc(-c2cccn3c(=O)c(Br)c(C(F)(F)F)nc23)cc1F)C1CCOCC1 [Example 84, 4-(3-bromo-4-oxo-2-(trifluoromethyl)-4H-pyrido[1,2-a]pyrimidin-9-yl)-2-fluoro-N-methyl-N-(tetrahydro-2H-pyran-4-yl)benzamide] |  | 102 |
| CN(CC(F)F)C(=O)c1ccc(-c2cccn3c(=O)cc(C(F)(F)F)nc23)cc1 [Example 2, N-(2,2-difluoroethyl)-N-methyl-4-(4-oxo-2-(trifluoromethyl)-4H-pyrido[1,2-a]pyrimidin-9-yl)benzamide] |  | 103 |
| CN(CCC#N)C(=O)c1ccc(-c2cccn3c(=O)c(Cl)c(C(F)(F)F)nc23)cc1 [Example 39, 4-(3-chloro-4-oxo-2-(trifluoromethyl)-4H-pyrido[1,2-a]pyrimidin-9-yl)-N-(2-cyanoethyl)-N-methylbenzamide] |  | 85.9 |
| Cc1c(C(F)(F)F)nc2c(-c3ccc(C(=O)N4CCOCC4)c(F)c3)cccn2c1=O [Example 45, 9-(3-fluoro-4-(morpholin-4-ylcarbonyl)phenyl)-3-methyl-2-(trifluoromethyl)-4H-pyrido[1,2-a]pyrimidin-4-one] |  | 82.6 |
| CN(CC1(C#N)CC1)C(=O)c1ccc(-c2cccn3c(=O)c(Br)c(C(F)(F)F)nc23)cc1 [Example 118, 4-(3-bromo-4-oxo-2-(trifluoromethyl)-4H-pyrido[1,2-a]pyrimidin-9-yl)-N-((1-cyanocyclopropyl)methyl)-N-methylbenzamide] |  | 84 |
| Cc1c(C(F)(F)F)nc2c(-c3ccc(C(=O)N4CCc5cccnc54)c(F)c3)cccn2c1=O [Example 80, 9-(4-(2,3-dihydro-1H-pyrrolo[2,3-b]pyridin-1-ylcarbonyl)-3-fluorophenyl)-3-methyl-2-(trifluoromethyl)-4H-pyrido[1,2-a]pyrimidin-4-one] |  | 90.6 |
| O=C(N[C@H]1CCOC1)c1ccc(-c2cccn3c(=O)c(Br)c(C(F)(F)F)nc23)cc1 [Example 55, 4-(3-bromo-4-oxo-2-(trifluoromethyl)-4H-pyrido[1,2-a]pyrimidin-9-yl)-N-((3S)-tetrahydrofuran-3-yl)benzamide] |  | 75.1 |
| O=C(NC1CCOCC1)c1ccc(-c2cccn3c(=O)c(Br)c(C(F)(F)F)nc23)cc1F [Example 124, 4-(3-bromo-4-oxo-2-(trifluoromethyl)-4H-pyrido[1,2-a]pyrimidin-9-yl)-2-fluoro-N-(tetrahydro-2H-pyran-4-yl)benzamide] |  | 86.3 |
| O=C(N[C@H]1CCCOC1)c1ccc(-c2cccn3c(=O)c(Br)c(C(F)(F)F)nc23)cc1 [Example 92, 4-(3-bromo-4-oxo-2-(trifluoromethyl)-4H-pyrido[1,2-a]pyrimidin-9-yl)-N-((3S)-tetrahydro-2H-pyran-3-yl)benzamide] |  | 78.9 |
| Cc1c(C(F)(F)F)nc2c(-c3ccc(C(=O)N4CCOC(C(F)F)C4)cc3)cccn2c1=O (centres unmarked) [Example 23, 9-(4-((2-(difluoromethyl)morpholin-4-yl)carbonyl)phenyl)-3-methyl-2-(trifluoromethyl)-4H-pyrido[1,2-a]pyrimidin-4-one] |  | 83.5 |
